Test [1] deals with Antibody expressing CHO cells carrying the RMD transgene. Kind of test: Fucose feeding experiment: rescue of core-fucosylation of secreted antibody, PSA lectin blotting. It is filed as cell-based, Chinese hamster. The note with it: media and feeds supplemented with 0.03 mM; cells grown 12 days; supernatant lectin blot (FIG. 4). As to the method:
Currently, Fucose analogs are not routinely used in cell culture and are thus still expensive. In order to identify the most cost efficient fucose analogue concentration, we needed to determine the minimum required amount of fucose analogue that was sufficient to completely rescue the fucosylation status of heterologously expressed antibodies secreted from RMD-co-expressing cells. Antibody expressing CHO cells carrying the RMD transgene were cultured in medium containing varying concentrations of fucose and fed with a feed mix supplemented with that same amount of fucose. Cells were grown for 12 days before harvesting the cell culture supernatant. The supernatants were analysed by lectin blotting using biotinylated PSA lectin (pisum sativum) that specifically recognizes the alpha-1,6-linked core-fucose. Lectin blotting was conducted using the Vecstatin Elite ABC Kit (Vector Labs, USA) according to the manufacturers instructions.

The next test deals with avidin (Gallus gallus, UniProt P02701). The note with it: avidin-biotin complex; cited from earlier work.
Sequence of avidin (P02701 25-152, species assumed): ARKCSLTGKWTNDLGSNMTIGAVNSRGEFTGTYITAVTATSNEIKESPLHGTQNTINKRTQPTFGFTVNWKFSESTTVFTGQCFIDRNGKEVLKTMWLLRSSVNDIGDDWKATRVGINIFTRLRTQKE

The text below walks through data of patent US9765158B2, “Methods for preparation of fucose-linked site specific conjugates of proteins with toxins, adjuvants, detection labels and pharmacokinetic half life extenders” (Probiogen AG, priority 2011, dated 2017).

The structures appear in SMILES notation.

For `C[C@H](O)[C@@H](O)[C@@H](O)[C@H](O)C=O` [Fucose], the rescue of core-fucosylation result in test [1] is “almost complete rescue”. Take `O=C(O)CCCC[C@@H]1SC[C@@H]2NC(=O)N[C@@H]21` [biotin]: the Ka at avidin is 1015 M⁻¹.
